According to patent US20230172206A1 (BASF SE, priority 2020, published 2023):

What was measured:
[1] = tested on: Phakopsora pachyrhizi (F129L); assay: Protective control of soybean rust on soybeans (PHAKPA P2); format: in vivo; settings: for % PHAKPA (F129L) Disease level P2 at 4 ppm: protective P2, 4 ppm; for % PHAKPA (F129L) Disease level P2 at 16 ppm: protective P2, 16 ppm
[2] = tested on: Phakopsora pachyrhizi (F129L); assay: Protective control of soybean rust on soybeans (PHAKPA P6); format: in vivo; settings: for % PHAKPA (F129L) Disease level P6 at 4 ppm: protective P6, 4 ppm; for % PHAKPA (F129L) Disease level P6 at 16 ppm: protective P6, 16 ppm

SMILES | % PHAKPA (F129L) Disease level P2 at 4 ppm ([1]; soybean rust F129L isolate) [%] | % PHAKPA (F129L) Disease level P2 at 16 ppm ([1]; soybean rust F129L isolate) [%] | % PHAKPA (F129L) Disease level P6 at 4 ppm ([2]; soybean rust F129L isolate) [%] | % PHAKPA (F129L) Disease level P6 at 16 ppm ([2]; soybean rust F129L isolate) [%] | % PHAKPA (F129L) Disease level P2 at 4 ppm ([1]; F129L isolate) [%] | % PHAKPA (F129L) Disease level P2 at 16 ppm ([1]; F129L isolate) [%] | % PHAKPA (F129L) Disease level P6 at 4 ppm ([2]; F129L isolate) [%] | % PHAKPA (F129L) Disease level P6 at 16 ppm ([2]; F129L isolate) [%]
CNC(=O)/C(=N/OC)c1cccc(C)c1CO/N=C(\C)c1ccccc1C(C)(F)F [compound 372] | 85 | 26 | 85 | 16 | – | – | – | –
CO/N=C(/C(=O)OC)c1cccc(C)c1CO/N=C(\C)c1ccc(OC)cc1OC(F)(F)F [compound 373] | 77 | 27 | 100 | 38 | – | – | – | –
CNC(=O)/C(=N/OC)c1cccc(C)c1CO/N=C(\C)c1ccc(Cl)cc1OC(F)(F)F [compound 375] | 47 | 8 | 40 | 6 | – | – | – | –
CNC(=O)/C(=N/OC)c1cccc(C)c1CO/N=C(\C)c1ccc(F)cc1OC(F)(F)F [compound 378] | 18 | 1 | 17 | 1 | – | – | – | –
CNC(=O)/C(=N/OC)c1cccc(C)c1CO/N=C(\CC(F)(F)F)c1ccccc1 [compound 380] | – | – | – | – | 53 | 5 | 60 | 12
CCC/C(=N\OCc1c(C)cccc1/C(=N\OC)C(=O)OC)c1ccccc1 [compound 387] | – | – | – | – | 60 | 30 | 80 | 47
CCC/C(=N\OCc1c(C)cccc1/C(=N\OC)C(=O)NC)c1ccccc1 [compound 388] | – | – | – | – | 1 | 0 | 3 | 0
CNC(=O)/C(=N/OC)c1cccc(C)c1CO/N=C(/c1ccccc1)C(C)C [compound 389] | – | – | – | – | 28 | 4 | 43 | 3
CO/C=C(/C(=O)OC)c1cccc(C)c1CO/N=C(\C)c1c(F)cccc1C(F)(F)F [compound 390] | – | – | – | – | 22 | 0 | 18 | 2
CNC(=O)/C(=N/OC)c1cccc(C)c1CO/N=C(\CC(F)(F)F)c1ccccc1C [compound 393] | – | – | – | – | 93 | 55 | 93 | 42
CNC(=O)/C(=N/OC)c1cccc(C)c1CO/N=C(\C)c1ccc(F)cc1CC(F)(F)F [compound 394] | – | – | – | – | 9 | 3 | 12 | 2
CO/N=C(/C(=O)OC)c1cccc(Br)c1CO/N=C(\C)c1ccccc1 [compound 395] | – | – | – | – | 43 | 4 | 67 | 18
CNC(=O)/C(=N/OC)c1cccc(Br)c1CO/N=C(\C)c1ccccc1 [compound 396] | – | – | – | – | 3 | 0 | 4 | 0
C=C(C)c1cccc(/C(=N\OC)C(=O)NC)c1CO/N=C(\C)c1ccccc1 [compound 399] | – | – | – | – | 67 | 8 | 90 | 15
C=Cc1cccc(/C(=N\OC)C(=O)NC)c1CO/N=C(\C)c1ccccc1 [compound 400] | – | – | – | – | 2 | 0 | 8 | 0
C#Cc1cccc(/C(C)=N/OCc2c(C)cccc2/C(=N\OC)C(=O)NC)c1F [compound 401] | – | – | – | – | 17 | 5 | 32 | 4
CO/C=C(/C(=O)OC)c1cccc(C)c1CO/N=C(\C)c1cc(F)c(F)cc1CC(F)(F)F [compound 405] | – | – | – | – | 97 | 27 | 70 | 27
